Source: the supplement of paper PMC10627819

Key:
S. aureus DSM 20231 [1] = experiment: Bliss interaction score (quartile over a dose matrix) (fitness difference); higher = more antagonism (negative = synergy)
Summary of the method: (§1)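 Fitness was OD595 at entry into stationary phase divided by the plate's robust no-drug mean and capped at 1; single-drug fitness was inferred from combination data. The Bliss score is observed minus expected (product) fitness, summarised by quartiles over technical, biological and donor/recipient replicates.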

S. aureus Newman [2] = experiment: as above
Summary of the method: as §1

S. pneumoniae D39V = experiment: as above
Summary of the method: as §1

B. subtilis 168 [3] = experiment: as above
Summary of the method: as §1

S. aureus DSM 20231 [4] = experiment: fitness (endpoint OD595 vs no drug) (fraction); higher = more growth
Summary of the method: (§2)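 Fitness was measured as bacterial growth in 384-well plates inoculated at OD595 0.01 (30 µl, or 55 µl for S. pneumoniae). Media were TSB, LB Lennox or CY, at 37 °C. OD595 was read every 30 min for 14 h and background-subtracted against the first reading. Fitness is OD595 at the transition into stationary phase divided by the robust mean of no-drug control wells, capped at 1.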

S. aureus Newman [5] = experiment: as above
Summary of the method: as §2

B. subtilis 168 [6] = experiment: as above
Summary of the method: as §2

[7] = first compound 0.125 µg/mL, partner 0.625 µg/mL
[8] = first compound 0.125 µg/mL, partner 1.25 µg/mL
[9] = first compound 0.125 µg/mL, partner 2.5 µg/mL
[10] = first compound 0.25 µg/mL, partner 0.625 µg/mL
[11] = first compound 0.25 µg/mL, partner 1.25 µg/mL
[12] = first compound 0.25 µg/mL, partner 2.5 µg/mL
[13] = first compound 0.5 µg/mL, partner 0.625 µg/mL
[14] = first compound 0.5 µg/mL, partner 1.25 µg/mL
[15] = first compound 0.5 µg/mL, partner 2.5 µg/mL
[16] = first compound 0.125 µg/mL, partner 0.15 µg/mL
[17] = first compound 0.125 µg/mL, partner 0.3 µg/mL
[18] = first compound 0.125 µg/mL, partner 0.6 µg/mL
[19] = first compound 0.25 µg/mL, partner 0.15 µg/mL
[20] = first compound 0.25 µg/mL, partner 0.3 µg/mL
[21] = first compound 0.25 µg/mL, partner 0.6 µg/mL
[22] = first compound 0.5 µg/mL, partner 0.15 µg/mL
[23] = first compound 0.5 µg/mL, partner 0.3 µg/mL
[24] = first compound 0.5 µg/mL, partner 0.6 µg/mL
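Wherever Bliss interaction score (quartile over a dose matrix) is given: first quartile when negative (synergy) and third quartile when positive (antagonism).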

CC[C@H]1OC(=O)[C@H](C)[C@@H](O[C@H]2C[C@@](C)(OC)[C@@H](O)[C@H](C)O2)[C@H](C)[C@@H](O[C@@H]2O[C@H](C)C[C@H](N(C)C)[C@H]2O)[C@](C)(O)C[C@@H](C)CN(C)[C@H](C)[C@@H](O)[C@]1(C)O [Azithromycin] + COc1cccc2c1C(=O)c1c(O)c3c(c(O)c1C2=O)C[C@@](O)(C(=O)CO)C[C@@H]3O[C@H]1C[C@H](N)[C@H](O)[C@H](C)O1 [Doxorubicin]
Bliss interaction score (S. aureus DSM 20231 [1]): 0.115 | Bliss interaction score (S. aureus Newman [2]): 0.0458 | Bliss interaction score (S. pneumoniae D39V): -0.0571 | Bliss interaction score (B. subtilis 168 [3]): 0.164 | fitness (S. aureus DSM 20231 [4]; [7]): 0.811 | fitness (S. aureus DSM 20231 [4]; [8]): 0.794 | fitness (S. aureus DSM 20231 [4]; [9]): 0.781 | fitness (S. aureus DSM 20231 [4]; [10]): 0.811 | fitness (S. aureus DSM 20231 [4]; [11]): 0.824 | fitness (S. aureus DSM 20231 [4]; [12]): 0.778 | fitness (S. aureus DSM 20231 [4]; [13]): 0.62 | fitness (S. aureus DSM 20231 [4]; [14]): 0.672 | fitness (S. aureus DSM 20231 [4]; [15]): 0.569 | fitness (S. aureus Newman [5]; [7]): 0.777 | fitness (S. aureus Newman [5]; [8]): 0.775 | fitness (S. aureus Newman [5]; [9]): 0.735 | fitness (S. aureus Newman [5]; [10]): 0.827 | fitness (S. aureus Newman [5]; [11]): 0.779 | fitness (S. aureus Newman [5]; [12]): 0.77 | fitness (S. aureus Newman [5]; [13]): 0.659 | fitness (S. aureus Newman [5]; [14]): 0.665 | fitness (S. aureus Newman [5]; [15]): 0.561 | fitness (B. subtilis 168 [6]; [10]): 0.964 | fitness (B. subtilis 168 [6]; [11]): 0.92 | fitness (B. subtilis 168 [6]; [12]): 0.791 | fitness (B. subtilis 168 [6]; [13]): 0.879 | fitness (B. subtilis 168 [6]; [14]): 0.847 | fitness (B. subtilis 168 [6]; [15]): 0.767 | fitness (B. subtilis 168 [6]; first compound 2 µg/mL, partner 0.625 µg/mL, one replicate): 0.358 | fitness (B. subtilis 168 [6]; first compound 2 µg/mL, partner 1.25 µg/mL, one replicate): 0.176 | fitness (B. subtilis 168 [6]; first compound 2 µg/mL, partner 2.5 µg/mL, one replicate): 0.0297

CC[C@H]1OC(=O)[C@H](C)[C@@H](O[C@H]2C[C@@](C)(OC)[C@@H](O)[C@H](C)O2)[C@H](C)[C@@H](O[C@@H]2O[C@H](C)C[C@H](N(C)C)[C@H]2O)[C@](C)(O)C[C@@H](C)CN(C)[C@H](C)[C@@H](O)[C@]1(C)O [Azithromycin] + CN(N=O)C(=O)N[C@@H](C=O)[C@@H](O)[C@H](O)[C@H](O)CO [Streptozotocin]
Bliss interaction score (S. aureus DSM 20231 [1]): -0.0752 | Bliss interaction score (S. aureus Newman [2]): 0.0643 | Bliss interaction score (S. pneumoniae D39V): 0.0501 | Bliss interaction score (B. subtilis 168 [3]): 0.0551 | fitness (S. aureus DSM 20231 [4]; [16]): 0.796 | fitness (S. aureus DSM 20231 [4]; [17]): 0.742 | fitness (S. aureus DSM 20231 [4]; [18]): 0.703 | fitness (S. aureus DSM 20231 [4]; [19]): 0.72 | fitness (S. aureus DSM 20231 [4]; [20]): 0.73 | fitness (S. aureus DSM 20231 [4]; [21]): 0.736 | fitness (S. aureus DSM 20231 [4]; [22]): 0.37 | fitness (S. aureus DSM 20231 [4]; [23]): 0.293 | fitness (S. aureus Newman [5]; [16]): 0.81 | fitness (S. aureus Newman [5]; [17]): 0.707 | fitness (S. aureus Newman [5]; [18]): 0.564 | fitness (S. aureus Newman [5]; [19]): 0.811 | fitness (S. aureus Newman [5]; [20]): 0.76 | fitness (S. aureus Newman [5]; [21]): 0.657 | fitness (S. aureus Newman [5]; [22]): 0.576 | fitness (S. aureus Newman [5]; [23]): 0.5 | fitness (S. aureus Newman [5]; [24]): 0.367 | fitness (B. subtilis 168 [6]; [19]): 0.938 | fitness (B. subtilis 168 [6]; [20]): 0.952 | fitness (B. subtilis 168 [6]; [21]): 0.918 | fitness (B. subtilis 168 [6]; [22]): 0.897 | fitness (B. subtilis 168 [6]; [23]): 0.902 | fitness (B. subtilis 168 [6]; [24]): 0.842
